Patent publication US7396837B2, “Antitumoral analogs of lamellarins” (Pharma Mar, S.A.U., priority 2002, dated 2008)
Like-named read-outs stand apart in the source and are kept apart here.

Assays:
Format in all cases: cell-based
HT-29 = experiment: SRB colorimetric cell growth inhibition assay, HT-29
In short: (§1)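 Human tumour cells continuously exposed to compound in 96-well culture; growth and viability quantified colorimetrically by sulforhodamine B staining. Mean ± SD from triplicate wells; GI (growth inhibition), TGI (total growth inhibition, cytostatic) and LC (cell killing, cytotoxic) parameters derived.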

LoVo = experiment: SRB colorimetric cell growth inhibition assay, LoVo; conditions: for GI50: read-out: GI50 LOVO; for CC50: read-out: LC50 LOVO; for IC (TGI): read-out: TGI LOVO
In short: as §1

K-562 = experiment: SRB colorimetric cell growth inhibition assay, K-562; conditions: Homo sapiens
In short: as §1

IGROV-ET = experiment: SRB colorimetric cell growth inhibition assay, IGROV-ET (ET-743 resistant); conditions: Homo sapiens; for GI50: read-out: GI50 IGROV-ET; for CC50: read-out: LC50 IGROV-ET; for IC (TGI): read-out: TGI IGROV-ET
In short: as §1

IGROV = experiment: SRB colorimetric cell growth inhibition assay, IGROV; conditions: Homo sapiens, IGROV; for GI50: read-out: GI50 IGROV; for CC50: read-out: LC50 IGROV; for IC (TGI): read-out: TGI IGROV
In short: as §1

H-MEC-1 = experiment: SRB colorimetric cell growth inhibition assay, H-MEC-1; conditions: Homo sapiens
From the text: (§2) A colorimetric type of assay, using sulforhodamine B (SRB) reaction has been adapted for a quantitative measurement of cell growth and viability (following the technique described by P. A. Skehan, et al., J. Natl. Cancer Inst. 1990, 82, 1107-1112).
(§3) This form of assay employs 96 well cell culture microplates of 9 mm diameter (T. Mosmann et al., J. of Immunological Methods 1983, 65, 55-63; G. T. Faircloth et al., J. of Tissue and Culture Methods 1988, 11, 201-205).
(§4) Most of the cell lines are obtained from American Type Culture Collection (ATCC) derived from different human cancer types.
(§5) The values for mean +/− SD of data from triplicate wells are calculated. Some parameters for cellular responses can be calculated: GI=growth inhibition, TGI=total growth inhibition (cytostatic effect) and LC=cell killing (cytotoxic effect).

[1] = as above; conditions: human, H-MEC-1, cell killing (cytotoxic effect), read-out: LC50 H-MEC-1
From the text: as §2, §3, §4, §5

LNCaP = experiment: SRB colorimetric cell growth inhibition assay, LNCaP; conditions: Homo sapiens, LNCaP; for GI50: read-out: GI50 LN-caP; for CC50: read-out: LC50 LN-caP; for IC (TGI): read-out: TGI LN-caP
In short: as §1

A-549 = experiment: SRB colorimetric cell growth inhibition assay, A-549
In short: as §1

SK-BR-3 = experiment: SRB colorimetric cell growth inhibition assay, SK-BR-3
In short: as §1

DU-145 = experiment: SRB colorimetric cell growth inhibition assay, DU-145
In short: as §1

SKOV-3 = experiment: SRB colorimetric cell growth inhibition assay, SKOV-3; conditions: Homo sapiens
From the text: as §2, §3, §4, §5

PANC-1 = experiment: SRB colorimetric cell growth inhibition assay, PANC-1
In short: as §1

LoVo-Dox = experiment: SRB colorimetric cell growth inhibition assay, LoVo-Dox (MDR); conditions: Homo sapiens; for GI50: read-out: GI50 LOVO-DOX; for CC50: read-out: LC50 LOVO-DOX; for IC (TGI): read-out: TGI LOVO-DOX
In short: as §1

SK-MEL-28 = experiment: SRB colorimetric cell growth inhibition assay, SK-MEL-28
In short: as §1

COc1cc(-c2c3c4cc(OC)c(O)cc4oc(=O)c3n3ccc4c(O)c(OC)c(OC)cc4c23)ccc1O [Compound 2]
GI50 (HT-29; Homo sapiens, HT-29, read-out: GI50 HT-29): 8.31 µM | CC50 (HT-29; Homo sapiens, HT-29, read-out: LC50 HT-29): 18.9 µM | IC (TGI) (HT-29; Homo sapiens, HT-29, read-out: TGI HT-29): 18.9 µM | GI50 (LoVo; Homo sapiens, LoVo): 398 nM | CC50 (LoVo; Homo sapiens, LoVo): 16 µM | IC (TGI) (LoVo; Homo sapiens, LoVo): 3.02 µM | GI50 (K-562; K562, read-out: GI50 K-562): 117 nM | CC50 (K-562; K562, read-out: LC50 K-562): 18.9 µM | IC (TGI) (K-562; K562, read-out: TGI K-562): 2.25 µM | GI50 (IGROV-ET): 1980 nM | CC50 (IGROV-ET): ≥ 18.9 µM | IC (TGI) (IGROV-ET): 8.12 µM | GI50 (IGROV): 880 nM | CC50 (IGROV): ≥ 18.9 µM | IC (TGI) (IGROV): 5.17 µM | GI50 (H-MEC-1; HMEC-1, read-out: GI50 H-MEC-1): 665 nM | IC (TGI) (H-MEC-1; HMEC-1, read-out: TGI H-MEC-1): 18.9 µM | LC50 (concentration giving 50% net cell killing) [1]: ≥ 18.9 µM | GI50 (LNCaP): 72.7 nM | CC50 (LNCaP): 1.44 µM | IC (TGI) (LNCaP): 0.398 µM | GI50 (A-549; Homo sapiens, A549, read-out: GI50 A-549): 674 nM | CC50 (A-549; Homo sapiens, A549, read-out: LC50 A-549): 18.9 µM | IC (TGI) (A-549; Homo sapiens, A549, read-out: TGI A-549): 18.9 µM | GI50 (SK-BR-3; Homo sapiens, SK-BR-3, read-out: GI50 SK-BR-3): 314 nM | CC50 (SK-BR-3; Homo sapiens, SK-BR-3, read-out: LC50 SK-BR-3): ≥ 18.8 µM | IC (TGI) (SK-BR-3; Homo sapiens, SK-BR-3, read-out: TGI SK-BR-3): 2.36 µM | GI50 (DU-145; Homo sapiens, DU-145, read-out: GI50 DU-145): 64 nM | CC50 (DU-145; Homo sapiens, DU-145, read-out: LC50 DU-145): ≥ 18.9 µM | IC (TGI) (DU-145; Homo sapiens, DU-145, read-out: TGI DU-145): 0.14 µM | GI50 (SKOV-3; SK-OV-3, read-out: GI50 SKOV-3): 140 nM | LC50 (concentration causing 50% net cell killing) (SKOV-3; SK-OV-3, read-out: LC50 SKOV-3): ≥ 18.9 µM | IC (TGI) (SKOV-3; SK-OV-3, read-out: TGI SKOV-3): 5.1 µM | GI50 (PANC-1; Homo sapiens, PANC-1, read-out: GI50 PANC-1): 988 nM | CC50 (PANC-1; Homo sapiens, PANC-1, read-out: LC50 PANC-1): 18.9 µM | IC (TGI) (PANC-1; Homo sapiens, PANC-1, read-out: TGI PANC-1): 6.97 µM | GI50 (LoVo-Dox): 604 nM | CC50 (LoVo-Dox): 18.9 µM | IC (TGI) (LoVo-Dox): 3.83 µM | GI50 (SK-MEL-28; Homo sapiens, SK-MEL-28, read-out: GI50 MEL-28): 302 nM | CC50 (SK-MEL-28; Homo sapiens, SK-MEL-28, read-out: LC50 MEL-28): ≥ 18.9 µM | IC (TGI) (SK-MEL-28; Homo sapiens, SK-MEL-28, read-out: TGI MEL-28): 3.66 µM

COc1cc2ccn3c(c(-c4ccc(OC(=O)[C@@H](N)C(C)C)c(OC)c4)c4c5cc(OC)c(OC(=O)[C@@H](N)C(C)C)cc5oc(=O)c43)c2cc1OC [Compound 19]
GI50 (HT-29; HT-29, GI=growth inhibition, read-out: GI50 HT-29): 0.109 µM | TGI HT-29 (HT-29; HT-29, total growth inhibition (cytostatic effect)): 2.10E−06 Molar | CC50 (HT-29; Homo sapiens, HT-29, HT-29, cell killing (cytotoxic effect), read-out: LC50 HT-29): 7.29 µM | GI50 (LoVo; Homo sapiens, LoVo, GI=growth inhibition): 722 nM | IC (TGI) (LoVo; Homo sapiens, LoVo, total growth inhibition (cytostatic effect)): 2.33 µM | CC50 (LoVo; LOVO, cell killing (cytotoxic effect)): 6.6 µM | GI50 (K-562; K562, K-562, GI=growth inhibition, read-out: GI50 K-562): 1840 nM | CC50 (K-562; K562, K-562, cell killing (cytotoxic effect), read-out: LC50 K-562): 11.6 µM | IC (TGI) (K-562; K562, K-562, total growth inhibition (cytostatic effect), read-out: TGI K-562): 4.62 µM | GI50 (IGROV-ET; IGROV-ET, GI=growth inhibition): 761 nM | CC50 (IGROV-ET; IGROV-ET, cell killing (cytotoxic effect)): 11.3 µM | IC (TGI) (IGROV-ET; IGROV-ET, total growth inhibition (cytostatic effect)): 2.54 µM | GI50 (IGROV; GI=growth inhibition): 406 nM | CC50 (IGROV; cell killing (cytotoxic effect)): 9.34 µM | IC (TGI) (IGROV; total growth inhibition (cytostatic effect)): 2.51 µM | GI50 (H-MEC-1; HMEC-1, H-MEC-1, GI=growth inhibition, read-out: GI50 H-MEC-1): 807 nM | IC (TGI) (H-MEC-1; HMEC-1, H-MEC-1, total growth inhibition (cytostatic effect), read-out: TGI H-MEC-1): 2.42 µM | LC50 (concentration giving 50% net cell killing) ([1]; H-MEC-1 cells): 7.16 µM | GI50 (LNCaP; LN-caP, GI=growth inhibition): 94.1 nM | CC50 (LNCaP; LN-caP, cell killing (cytotoxic effect)): 5.37 µM | IC (TGI) (LNCaP; LN-caP, total growth inhibition (cytostatic effect)): 1.41 µM | CC50 (A-549; A-549, cell killing (cytotoxic effect), read-out: LC50 A-549): 6.32 µM | TGI A-549 (A-549; A-549, total growth inhibition (cytostatic effect)): 2.13E−06 Molar | GI50 (A-549; Homo sapiens, A549, A-549, GI=growth inhibition, read-out: GI50 A-549): 605 nM | CC50 (SK-BR-3; Homo sapiens, SK-BR-3, SK-BR-3, cell killing (cytotoxic effect), read-out: LC50 SK-BR-3): 14 µM | GI50 (SK-BR-3; SK-BR-3, GI=growth inhibition, read-out: GI50 SK-BR-3): 165 nM | TGI SK-BR-3 (SK-BR-3; SK-BR-3, total growth inhibition (cytostatic effect)): 2.28E−06 Molar | CC50 (DU-145; DU-145, cell killing (cytotoxic effect), read-out: LC50 DU-145): 6.85 µM | GI50 (DU-145; Homo sapiens, DU-145, DU-145, GI=growth inhibition, read-out: GI50 DU-145): 532 nM | IC (TGI) (DU-145; Homo sapiens, DU-145, DU-145, total growth inhibition (cytostatic effect), read-out: TGI DU-145): 2.16 µM | GI50 (SKOV-3; SK-OV-3, SKOV-3, GI=growth inhibition, read-out: GI50 SKOV-3): 758 nM | LC50 (concentration causing 50% net cell killing) (SKOV-3; SK-OV-3, SKOV-3, cell killing (cytotoxic effect), read-out: LC50 SKOV-3): 6.57 µM | IC (TGI) (SKOV-3; SK-OV-3, SKOV-3, total growth inhibition (cytostatic effect), read-out: TGI SKOV-3): 2.31 µM | CC50 (PANC-1; Homo sapiens, PANC-1, PANC-1, cell killing (cytotoxic effect), read-out: LC50 PANC-1): 9.5 µM | GI50 (PANC-1; PANC-1, GI=growth inhibition, read-out: GI50 PANC-1): 245 nM | TGI PANC-1 (PANC-1; PANC-1, total growth inhibition (cytostatic effect)): 2.42E−06 Molar | GI50 (LoVo-Dox; LOVO-DOX, GI=growth inhibition): 874 nM | CC50 (LoVo-Dox; LOVO-DOX, cell killing (cytotoxic effect)): 8.03 µM | IC (TGI) (LoVo-Dox; LOVO-DOX, total growth inhibition (cytostatic effect)): 2.72 µM | GI50 (SK-MEL-28; MEL-28, GI=growth inhibition, read-out: GI50 MEL-28): 273 nM | CC50 (SK-MEL-28; MEL-28, cell killing (cytotoxic effect), read-out: LC50 MEL-28): 4.99 µM | TGI MEL-28 (SK-MEL-28; MEL-28, total growth inhibition (cytostatic effect)): 1.53E−06 Molar
